Measurements published in ChEMBL document CHEMBL4376882, “Photodynamic Therapy for ras-Driven Cancers: Targeting G-Quadruplex RNA Structures with Bifunctional Alkyl-Modified Porphyrins” (J Med Chem, 2020).
Calls of active or inactive are those of the source. No cut-off for these calls is given here.

Legend:
[1] = Binding affinity to 20-mer stem-loop RNA (unknown origin) assessed as compound-RNA complex stoichiometry ratio of 2:1 by Job's plot analysis
Quadruplex DNA [2] = assay: Binding affinity to human KRAS utr-z RNA g-quadruplex assessed as compound-RNA complex stoichiometry ratio of 1:1 by Job's plot analysis; assay type: nucleic-acid assay
Quadruplex DNA [3] = assay: Binding affinity to human KRAS utr-z RNA g-quadruplex assessed as compound-RNA complex stoichiometry ratio of 4:1 by Job's plot analysis; assay type: nucleic-acid assay
Quadruplex DNA [4] = assay: Binding affinity to human KRAS utr-z RNA g-quadruplex at 40 degree C by SPR analysis; assay type: nucleic-acid assay
Quadruplex DNA [5] = assay: Binding affinity to human KRAS utr-c RNA g-quadruplex by fluorescence spectroscopy; assay type: nucleic-acid assay
PANC-1 [6] = assay: Induction of apoptosis in human PANC1 cells assessed as viable cells at 5 nM and photoirradiated at 7.2 J/cm2 measured after 6 to 24 hrs by annexin-V-propidium iodide staining based FACScalibur flow cytometry analysis (reference value: 85.5 %); assay type: functional; conditions: PANC-1, light or radiation study, read-out: Activity
PANC-1 [7] = assay: Induction of apoptosis in human PANC1 cells assessed as viable cells at 15 nM and photoirradiated at 7.2 J/cm2 measured after 6 to 24 hrs by annexin-V-propidium iodide staining based FACScalibur flow cytometry analysis (reference value: 85.5 %); assay type: functional; conditions: PANC-1, light or radiation study, read-out: Activity
PANC-1 [8] = assay: Induction of apoptosis in human PANC1 cells assessed as early apoptotic cells at 15 nM and photoirradiated at 7.2 J/cm2 measured after 6 to 24 hrs by annexin-V-propidium iodide staining based FACScalibur flow cytometry analysis (reference value: 7.8 %); assay type: functional
Quadruplex DNA [9] = assay: Binding affinity to human KRAS utr-z RNA g-quadruplex by fluorescence spectroscopy; assay type: nucleic-acid assay
PANC-1 [10] = assay: Induction of apoptosis in human PANC1 cells assessed as cleavage of PARP1 when photoirradiated at 7.2 J/cm2 by Western blot analysis; assay type: functional, cell-based
PANC-1 [11] = assay: Induction of apoptosis in human PANC1 cells assessed as viable cells at 10 nM and photoirradiated at 7.2 J/cm2 measured after 6 to 24 hrs by annexin-V-propidium iodide staining based FACScalibur flow cytometry analysis (reference value: 85.5 %); assay type: functional; conditions: PANC-1, light or radiation study, read-out: Activity
PANC-1 [12] = assay: Cytotoxicity against human PANC1 cells assessed as reduction in metabolic activity after 48 hrs in dark followed by photoirradiation in presence of NADH by resazurin assay; assay type: functional, cell-based; conditions: PANC-1, light or radiation study
PANC-1 [13] = assay: Induction of apoptosis in human PANC1 cells assessed as late apoptotic cells at 15 nM and photoirradiated at 7.2 J/cm2 measured after 6 to 24 hrs by annexin-V-propidium iodide staining based FACScalibur flow cytometry analysis (reference value: 3.6 %); assay type: functional
PANC-1 [14] = assay: Induction of apoptosis in human PANC1 cells assessed as early apoptotic cells at 10 nM and photoirradiated at 7.2 J/cm2 measured after 6 to 24 hrs by annexin-V-propidium iodide staining based FACScalibur flow cytometry analysis (reference value: 7.8 %); assay type: functional
[15] = Drug uptake in mouse NIH/3T3 cells at 5 uM and 4 degree C after 16 hrs by FACS analysis relative to 37 degree C; assay type: ADME, cell-based; conditions: nih3t3, 16 h
PANC-1 [16] = assay: Induction of apoptosis in human PANC1 cells assessed as necrotic cells at 10 nM and photoirradiated at 7.2 J/cm2 measured after 6 to 24 hrs by annexin-V-propidium iodide staining based FACScalibur flow cytometry analysis (reference value: 3.2 %); assay type: functional
[17] = Binding affinity to NRAS RNA g-quadruplex (unknown origin) at 40 degree C by SPR analysis; assay type: nucleic-acid assay
[18] = Aggregation property of compound at > 40 degree C; assay type: physicochemical
PANC-1 [19] = assay: Induction of apoptosis in human PANC1 cells assessed as necrotic cells at 5 nM and photoirradiated at 7.2 J/cm2 measured after 6 to 24 hrs by annexin-V-propidium iodide staining based FACScalibur flow cytometry analysis (reference value: 3.2 %); assay type: functional
[20] = Drug uptake in human PANC1 cells at 5 uM after 2 hrs by FACS analysis; assay type: ADME, cell-based; conditions: panc-1, 2 h
PANC-1 [21] = assay: Induction of apoptosis in human PANC1 cells assessed as cleavage of caspase 3 when photoirradiated at 7.2 J/cm2 by Western blot analysis; assay type: functional, cell-based
PANC-1 [22] = assay: Cytotoxicity against human PANC1 cells assessed as reduction in metabolic activity at 20 nM after 24 to 72 hrs in dark followed by photoirradiation in presence of NADH and NAC by resazurin assay; assay type: functional, cell-based
[23] = target: GTPase KRas (Homo sapiens) (UniProt P01116); assay: Inhibition of KRAS in human PANC1 cells assessed as decrease in KRAS mRNA level at 15 nM followed by 7.2 J/cm2 irradiation after 4 hrs by qRT-PCR analysis; assay type: cell-based
Sequence of GTPase KRas (Homo sapiens) (P01116 whole entry, looked up): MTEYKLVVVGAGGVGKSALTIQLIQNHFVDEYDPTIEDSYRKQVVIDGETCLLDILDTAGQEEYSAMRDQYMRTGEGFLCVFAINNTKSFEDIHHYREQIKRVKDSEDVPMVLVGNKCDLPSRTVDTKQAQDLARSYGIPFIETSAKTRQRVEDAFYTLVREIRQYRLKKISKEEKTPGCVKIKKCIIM

[24] = Drug localization in cytoplasm of human PANC1 cells at 5 uM after 6 hrs by Hoechst staining based confocal microscopy; assay type: ADME, subcellular; conditions: panc-1, 6 h
PANC-1 [25] = assay: Induction of apoptosis in human PANC1 cells assessed as late apoptotic cells at 5 nM and photoirradiated at 7.2 J/cm2 measured after 6 to 24 hrs by annexin-V-propidium iodide staining based FACScalibur flow cytometry analysis (reference value: 3.6 %); assay type: functional
PANC-1 [26] = assay: Induction of apoptosis in human PANC1 cells assessed as necrotic cells at 15 nM and photoirradiated at 7.2 J/cm2 measured after 6 to 24 hrs by annexin-V-propidium iodide staining based FACScalibur flow cytometry analysis (reference value: 3.2 %); assay type: functional
Quadruplex DNA [27] = assay: Binding affinity to NRAS RNA g-quadruplex (unknown origin) by fluorescence spectroscopy; assay type: nucleic-acid assay
[28] = Drug uptake in human PANC1 cells at 5 uM after 16 hrs by FACS analysis; assay type: ADME, cell-based; conditions: panc-1, 16 h
[29] = target: GTPase KRas (Homo sapiens) (UniProt P01116); assay: Inhibition of KRAS in human PANC1 cells assessed as downregulation of KRAS expression at 15 nM after 4 hrs by Western blot analysis; assay type: cell-based
[30] = Drug uptake in human PANC1 cells in presence of dynamin-inhibitor dynasore; assay type: ADME, cell-based; conditions: panc-1
[31] = Drug uptake in human HEK293 cells at 5 uM and 4 degree C after 16 hrs by FACS analysis relative to 37 degree C; assay type: ADME, cell-based; conditions: hek293, 16 h
MIA PaCa-2 = assay: Cytotoxicity against human MIAPaCa2 cells harboring G12C point mutation assessed as reduction in metabolic activity after 48 hrs in dark followed by photoirradiation in presence of NADH by resazurin assay; assay type: functional, cell-based
[32] = target: GTPase NRas (Homo sapiens) (UniProt P01111); assay: Inhibition of NRAS in human PANC1 cells assessed as downregulation of NRAS expression at 15 nM followed by 7.2 J/cm2 irradiation after 4 hrs by Western blot analysis (reference value: 25 %); assay type: cell-based
Sequence of GTPase NRas (Homo sapiens) (P01111 whole entry): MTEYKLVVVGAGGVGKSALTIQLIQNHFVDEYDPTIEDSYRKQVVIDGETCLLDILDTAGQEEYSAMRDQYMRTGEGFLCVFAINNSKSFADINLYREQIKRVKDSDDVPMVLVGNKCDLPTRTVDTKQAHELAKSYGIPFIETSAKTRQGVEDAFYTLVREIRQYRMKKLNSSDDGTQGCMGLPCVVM

[33] = target: GTPase NRas (Homo sapiens) (UniProt P01111); assay: Inhibition of NRAS in human PANC1 cells assessed as downregulation of NRAS expression at 15 nM after 4 hrs by Western blot analysis; assay type: cell-based
[34] = Drug uptake in human PANC1 cells at 5 uM and 4 degree C after 16 hrs by FACS analysis relative to 37 degree C; assay type: ADME, cell-based; conditions: panc-1, 16 h
PANC-1 [35] = assay: Induction of apoptosis in human PANC1 cells assessed as late apoptotic cells at 10 nM and photoirradiated at 7.2 J/cm2 measured after 6 to 24 hrs by annexin-V-propidium iodide staining based FACScalibur flow cytometry analysis (reference value: 3.6 %); assay type: functional
Quadruplex DNA [36] = assay: Binding affinity to human KRAS utr-1 RNA g-quadruplex by fluorescence spectroscopy; assay type: nucleic-acid assay
HEK293 = assay: Cytotoxicity against human HEK293 cells assessed as reduction in metabolic activity after 24 to 72 hrs in dark followed by photoirradiation in presence of NADH by resazurin assay; assay type: ADME, cell-based
[37] = target: GTPase KRas (Homo sapiens) (UniProt P01116); assay: Inhibition of KRAS in human PANC1 cells assessed as downregulation of KRAS expression at 15 nM followed by 7.2 J/cm2 irradiation after 4 hrs by Western blot analysis (reference value: 5 %); assay type: cell-based
PANC-1 [38] = assay: Cytotoxicity against human PANC1 cells assessed as reduction in metabolic activity at 20 nM after 24 to 72 hrs in dark followed by photoirradiation in presence of NADH by resazurin assay; assay type: functional, cell-based
[39] = target: GTPase NRas (Homo sapiens) (UniProt P01111); assay: Inhibition of NRAS in human PANC1 cells assessed as decrease in NRAS mRNA level at 15 nM followed by 7.2 J/cm2 irradiation after 4 hrs by qRT-PCR analysis; assay type: cell-based
PANC-1 [40] = assay: Induction of apoptosis in human PANC1 cells assessed as early apoptotic cells at 5 nM and photoirradiated at 7.2 J/cm2 measured after 6 to 24 hrs by annexin-V-propidium iodide staining based FACScalibur flow cytometry analysis (reference value: 7.8 %); assay type: functional
Quadruplex DNA [41] = assay: Binding affinity to human KRAS utr-z RNA g-quadruplex assessed as compound-RNA complex stoichiometry ratio of 9:1 by Job's plot analysis; assay type: nucleic-acid assay
PANC-1 [42] = assay: Induction of apoptosis in human PANC1 cells assessed as cleavage of caspase 7 when photoirradiated at 7.2 J/cm2 by Western blot analysis; assay type: functional, cell-based

C[n+]1ccc(-c2c3nc(c(-c4cc[n+](C)cc4)c4ccc([nH]4)c(-c4cc[n+](C)cc4)c4ccc([nH]4)c(-c4cc[n+](C)cc4)c4nc2C=C4)C=C3)cc1
Activity [1]: Active | Activity (Quadruplex DNA [2]): Active | Activity (Quadruplex DNA [3]): Active

CCCCCCCCCCCCCCCCCC[n+]1ccc(-c2c3nc(c(-c4cc[n+](C)cc4)c4ccc([nH]4)c(-c4cc[n+](C)cc4)c4nc(c(-c5cc[n+](C)cc5)c5ccc2[nH]5)C=C4)C=C3)cc1.[I-].[I-].[I-].[I-]
Kd (Quadruplex DNA [4]): 82 to 202 nM | Kd (Quadruplex DNA [5]): 188 nM | viability at 0.005 µM (PANC-1 [6]): 78.2% | viability at 0.015 µM (PANC-1 [7]): 75.1% | Activity (PANC-1 [8]): 3.53% | Kd (Quadruplex DNA [9]): 99 nM | Activity (PANC-1 [10]): Active | viability at 0.01 µM (PANC-1 [11]): 81.5% | EC50 (PANC-1 [12]): 16.4 nM | Activity (PANC-1 [13]): 15.63% | Activity (PANC-1 [14]): 3.03% | Drug uptake [15]: Active | Activity (PANC-1 [16]): 4.03% | Kd [17]: 56 to 98 nM | Activity [18]: Active | Activity (PANC-1 [19]): 2.1% | Drug uptake [20]: Active | Activity (PANC-1 [21]): Active | Activity (PANC-1 [22]): inactive | inhibition [23]: Active | Drug uptake [24]: Active | Activity (PANC-1 [25]): 12.4% | Activity (PANC-1 [26]): 5.77% | Kd (Quadruplex DNA [27]): 32 nM | Drug uptake [28]: Active | inhibition [29]: inactive | Drug uptake [30]: Not Active | Drug uptake [31]: Active | Activity (MIA PaCa-2): Active | inhibition [32]: 50% | inhibition [33]: inactive | Drug uptake [34]: 47% | Activity (PANC-1 [35]): 11.43% | Kd (Quadruplex DNA [36]): 150 nM | Activity (HEK293): Non-Toxic | inhibition [37]: 20% | Activity (PANC-1 [38]): Active | inhibition [39]: Active | Activity (PANC-1 [40]): 7.35% | Activity (Quadruplex DNA [41]): Active | Activity (PANC-1 [42]): Active

CCCCCCCCCCCCCCCC[n+]1ccc(-c2c3nc(c(-c4cc[n+](C)cc4)c4ccc([nH]4)c(-c4cc[n+](C)cc4)c4nc(c(-c5cc[n+](C)cc5)c5ccc2[nH]5)C=C4)C=C3)cc1.[I-].[I-].[I-].[I-]
Kd (Quadruplex DNA [4]): 82 to 202 nM | EC50 (PANC-1 [12]): 19.2 nM | Kd [17]: 56 to 98 nM | Activity (PANC-1 [22]): inactive | Activity (MIA PaCa-2): Active | Activity (HEK293): Non-Toxic | Activity (PANC-1 [38]): Active

CCCCCCCCCCCC[n+]1ccc(-c2c3nc(c(-c4cc[n+](C)cc4)c4ccc([nH]4)c(-c4cc[n+](C)cc4)c4nc(c(-c5cc[n+](C)cc5)c5ccc2[nH]5)C=C4)C=C3)cc1.[I-].[I-].[I-].[I-]
Kd (Quadruplex DNA [4]): 82 to 202 nM | EC50 (PANC-1 [12]): 13.1 nM | Kd [17]: 56 to 98 nM | Activity (PANC-1 [22]): inactive | Activity (MIA PaCa-2): Active | Activity (HEK293): Non-Toxic | Activity (PANC-1 [38]): Active
